In ChEMBL document CHEMBL2069253, “Dipeptidyl peptidase-4 inhibitor with β-amino amide scaffold: synthesis, SAR and biological evaluation” (Bioorg Med Chem Lett, 2012):
Blank lines part the entries; values can stand above or below the compound they belong to.

Tests used:
Mus musculus [1] = species on record: Mus musculus; experiment: animal or person; conditions: C57BL/6J, Plasma, po, 1 h
Description: In vivo inhibition of DPP4 in po dosed C57BL/6J mouse plasma measured after 1 hr

CYP3A4 [2] = target: T1, CYP3A4 (Homo sapiens, UniProt P08684); experiment: Inhibition of CYP3A4 at 1 uM; type: ADME
Mus musculus [3] = species on record: Mus musculus; experiment: animal or person; conditions: C57BL/6J, Plasma, po, 1 h, read-out: INH
Description: In vivo inhibition of DPP4 in C57BL/6J mouse plasma at 0.3 mg/kg, po measured after 1 hr

CYP3A4 [4] = target: T1, CYP3A4; experiment: Inhibition of CYP3A4 at 10 uM; type: ADME
CYP3A4 [5] = target: T1, CYP3A4; experiment: Inhibition of CYP3A4 at 3 uM; type: ADME
Mus musculus [6] = species on record: Mus musculus; experiment: animal or person; conditions: C57BL/6J, Plasma, po, 1 h, read-out: INH; remark: listed apart in the source
Description: In vivo inhibition of DPP4 in C57BL/6J mouse plasma at 1 mg/kg, po measured after 1 hr

Mus musculus [7] = species on record: Mus musculus; experiment: animal or person; conditions: C57BL/6J, Plasma, po, 1 h, read-out: INH; remark: listed apart in the source
Description: In vivo inhibition of DPP4 in C57BL/6J mouse plasma at 3 mg/kg, po measured after 1 hr

Mus musculus [8] = species on record: Mus musculus; experiment: animal or person; conditions: C57BL/6J, Plasma, po, 1 h, read-out: INH; remark: listed apart in the source
Description: In vivo inhibition of DPP4 in C57BL/6J mouse plasma at 10 mg/kg, po measured after 1 hr

Dipeptidyl peptidase 4 = Dipeptidyl peptidase 4 (Mus musculus, UniProt P28843); experiment: Inhibition of mouse DPP4
Cytochrome P450 3A4 [9] = target: T2, Cytochrome P450 3A4 (Homo sapiens, UniProt P08684); experiment: Inhibition of CYP3A4; type: ADME
[10] = Metabolic stability in human liver microsomes assessed as compound remaining at 1 hr; type: ADME, Microsome; conditions: read-out: Stability
Mus musculus [11] = species on record: Mus musculus; experiment: animal or person; conditions: C57BL/6J, po, 1 h, read-out: INH
Description: In vivo inhibition of DPP4 in C57BL/6J mouse at 3 mg/kg, po measured after 1 hr

Rattus norvegicus [12] = species on record: Rattus norvegicus; experiment: animal or person; conditions: Sprague-Dawley, Plasma, po, 24 h, read-out: INH
Description: In vivo inhibition of DPP4 in Sprague-Dawley rat plasma at 10 mg/kg, po administered as single dose measured after 24 hrs

[13] = Metabolic stability in rat liver microsomes assessed as compound remaining at 1 hr; type: ADME, Microsome; conditions: read-out: Stability
[14] = Metabolic stability in dog liver microsomes assessed as compound remaining at 1 hr; type: ADME, Canis lupus familiaris, Microsome; conditions: read-out: Stability
Mus musculus [15] = species on record: Mus musculus; experiment: animal or person; conditions: C57BL/6J, po, 2 h
Description: Antidiabetic activity in po dosed C57BL/6J mouse assessed as reduction in glucose AUC administered prior to glucose challenge measured up to 120 mins

Mus musculus [16] = species on record: Mus musculus; experiment: animal or person; conditions: C57BL/6J, po, 1 h, read-out: INH; remark: listed apart in the source
Description: In vivo inhibition of DPP4 in C57BL/6J mouse at 1 mg/kg, po measured after 1 hr

Rattus norvegicus [17] = species on record: Rattus norvegicus; experiment: animal or person; conditions: Sprague-Dawley, Plasma, po, 6 h, read-out: INH
Description: In vivo inhibition of DPP4 in Sprague-Dawley rat plasma at 10 mg/kg, po administered as single dose measured up to 6 hrs

[18] = Stability in rat plasma assessed as compound remaining at 1 hr; type: ADME, cell-free; conditions: read-out: Stability
[19] = Protein binding in rat; type: ADME, organism-based; conditions: plasma, read-out: PB (converted)
[20] = Metabolic stability in mouse liver microsomes assessed as compound remaining at 1 hr; type: ADME, Microsome; conditions: read-out: Stability
[21] = Protein binding in human; type: ADME, organism-based; conditions: plasma, read-out: PB (converted)
[22] = Cmax in rat at 10 mg/kg, po; type: ADME, organism-based; set-up: dose 10 mg/kg, route oral; conditions: in vivo
[23] = Stability in human plasma assessed as compound remaining at 1 hr; type: ADME, cell-free; conditions: read-out: Stability
Cytochrome P450 3A4 [24] = target: T2, Cytochrome P450 3A4; experiment: Induction of CYP3A4 at 50 uM; type: ADME
Mus musculus [25] = species on record: Mus musculus; experiment: animal or person; conditions: C57BL/6J, po, 1 h, read-out: INH; remark: listed apart in the source
Description: In vivo inhibition of DPP4 in C57BL/6J mouse at 10 mg/kg, po measured after 1 hr

[26] = Protein binding in mouse; type: ADME, organism-based; conditions: plasma, read-out: PB (converted)
[27] = Solubility of the compound at pH 1-9; type: physicochemical; conditions: buffer
[28] = Oral bioavailability in rat at 10 mg/kg; type: ADME, organism-based; conditions: in vivo
[29] = Half life in rat at 10 mg/kg, po; type: ADME, organism-based; set-up: dose 10 mg/kg, route oral; conditions: in vivo
[30] = Stability in mouse plasma assessed as compound remaining at 1 hr; type: ADME, cell-free; conditions: read-out: Stability

T1 sequence (P08684 whole entry): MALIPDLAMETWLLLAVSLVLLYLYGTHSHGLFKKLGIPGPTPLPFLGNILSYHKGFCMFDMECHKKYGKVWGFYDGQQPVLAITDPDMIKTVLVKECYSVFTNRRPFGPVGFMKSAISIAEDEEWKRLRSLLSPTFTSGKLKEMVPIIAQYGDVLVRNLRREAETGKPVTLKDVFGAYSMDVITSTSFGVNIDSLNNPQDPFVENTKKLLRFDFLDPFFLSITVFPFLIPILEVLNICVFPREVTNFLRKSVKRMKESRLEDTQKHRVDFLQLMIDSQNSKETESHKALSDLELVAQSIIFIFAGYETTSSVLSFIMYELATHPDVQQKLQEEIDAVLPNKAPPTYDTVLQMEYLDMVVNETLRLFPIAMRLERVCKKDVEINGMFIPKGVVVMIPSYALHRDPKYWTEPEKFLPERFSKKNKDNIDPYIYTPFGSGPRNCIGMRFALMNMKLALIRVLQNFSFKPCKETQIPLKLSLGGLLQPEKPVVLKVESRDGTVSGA
T2 sequence (P08684 whole entry): as above
Sequence of Dipeptidyl peptidase 4 (P28843 whole entry): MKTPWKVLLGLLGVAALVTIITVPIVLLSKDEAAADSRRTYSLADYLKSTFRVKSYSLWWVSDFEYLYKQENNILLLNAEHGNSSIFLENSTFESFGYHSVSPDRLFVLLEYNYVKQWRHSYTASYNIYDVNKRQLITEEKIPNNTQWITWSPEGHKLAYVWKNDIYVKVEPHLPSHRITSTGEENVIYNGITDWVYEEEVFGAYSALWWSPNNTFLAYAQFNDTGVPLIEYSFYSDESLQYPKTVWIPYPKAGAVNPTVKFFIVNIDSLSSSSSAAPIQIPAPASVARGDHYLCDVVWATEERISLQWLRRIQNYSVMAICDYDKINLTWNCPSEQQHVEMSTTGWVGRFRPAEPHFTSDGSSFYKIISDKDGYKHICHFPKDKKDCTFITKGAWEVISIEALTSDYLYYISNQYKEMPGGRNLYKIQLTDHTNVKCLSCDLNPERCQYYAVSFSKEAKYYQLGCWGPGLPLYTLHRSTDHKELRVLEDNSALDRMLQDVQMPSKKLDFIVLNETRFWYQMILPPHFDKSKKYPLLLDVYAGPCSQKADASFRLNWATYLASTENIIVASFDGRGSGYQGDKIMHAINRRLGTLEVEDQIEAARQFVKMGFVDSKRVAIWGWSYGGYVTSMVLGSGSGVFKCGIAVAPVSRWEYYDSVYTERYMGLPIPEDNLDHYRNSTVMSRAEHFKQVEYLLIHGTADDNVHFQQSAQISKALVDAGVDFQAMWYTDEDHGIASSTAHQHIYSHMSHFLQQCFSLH

- IC50 (Cytochrome P450 3A4 [9]): 1000 nM
Compound: N[C@@H](CC(=O)N1CCN(C(=O)c2ccc(F)cc2)CC1)Cc1cc(F)c(F)cc1F

- IC50 (Cytochrome P450 3A4 [9]): 1000 nM
Compound: N[C@@H](CC(=O)N1CCN(C(=O)c2ccc(O)cc2)CC1)Cc1cc(F)c(F)cc1F

- IC50 (Cytochrome P450 3A4 [9]): 1000 nM
Compound: N[C@@H](CC(=O)N1CCN(C(=O)c2ccc(C(F)(F)F)cc2)CC1)Cc1cc(F)c(F)cc1F

- IC50 (Cytochrome P450 3A4 [9]): 1000 nM
Compound: N[C@@H](CC(=O)N1CCN(C(=O)c2ccc(S(N)(=O)=O)cc2)CC1)Cc1cc(F)c(F)cc1F

- IC50 (Cytochrome P450 3A4 [9]): 1000 nM
Compound: N[C@@H](CC(=O)N1CCN(C(=O)c2ccc(C(=O)O)cc2)CC1)Cc1cc(F)c(F)cc1F

The remaining lines, values behind:

Compound: N[C@@H](CC(=O)N1CCN(c2ccc(F)cc2F)CC1)Cc1cc(F)c(F)cc1F
- ED50 (Mus musculus [1]): 0.87 mg/kg
- inhibition at 1 µM (CYP3A4 [2]): 81.5%
- inhibition in vivo at 0.3 mg/kg (Mus musculus [3]): 33.8%
- inhibition at 10 µM (CYP3A4 [4]): 100%
- inhibition at 3 µM (CYP3A4 [5]): 94%
- inhibition in vivo at 1 mg/kg (Mus musculus [6]): 52.2%
- inhibition in vivo at 3 mg/kg (Mus musculus [7]): 68.6%
- inhibition in vivo at 10 mg/kg (Mus musculus [8]): 85.9%
- IC50 (Dipeptidyl peptidase 4): 94.4 nM

Compound: N[C@@H](CC(=O)N1CCN(C(=O)c2ccccc2)CC1)Cc1cc(F)c(F)cc1F
- IC50 (Cytochrome P450 3A4 [9]): 1000 nM

Compound: N[C@@H](CC(=O)N1CCN(C(=O)c2ccc(OC(F)(F)F)cc2)CC1)Cc1cc(F)c(F)cc1F
- IC50 (Cytochrome P450 3A4 [9]): 1000 nM

Compound: N[C@@H](CC(=O)N1CCN(C(=O)c2cccc(C(=O)O)c2)CC1)Cc1cc(F)c(F)cc1F
- IC50 (Cytochrome P450 3A4 [9]): 1000 nM

Compound: CN1CCN(c2ccc(C(=O)N3CCN(C(=O)C[C@H](N)Cc4cc(F)c(F)cc4F)CC3)cc2)CC1
- IC50 (Cytochrome P450 3A4 [9]): 1000 nM

Compound: N[C@@H](CC(=O)N1CCN(C(=O)c2ccccn2)CC1)Cc1cc(F)c(F)cc1F
- remaining at 1 h [10]: 89%
- inhibition in vivo at 3 mg/kg (Mus musculus [11]): 59.1%
- inhibition in vivo at 10 mg/kg (Rattus norvegicus [12]): 30%
- remaining at 1 h [13]: 85%
- remaining at 1 h [14]: 88%
- ED30 (Mus musculus [15]): 0.38 mg/kg
- inhibition in vivo at 1 mg/kg (Mus musculus [16]): 32.5%
- inhibition in vivo at 10 mg/kg (Rattus norvegicus [17]): 60%
- remaining at 1 h [18]: > 97%
- fraction unbound [19]: 0.729
- remaining at 1 h [20]: 79%
- fraction unbound [21]: 0.497
- Cmax [22]: 2030 ng/mL
- remaining at 1 h [23]: 97%
- Activity (Cytochrome P450 3A4 [24]): < 10%
- inhibition in vivo at 10 mg/kg (Mus musculus [25]): 84.6%
- fraction unbound [26]: 0.557
- solubility [27]: > 10000 µg/mL
- bioavailability [28]: 65.3%
- half-life [29]: 4.74 h
- remaining at 1 h [30]: > 97%
